Test results reported in patent publication US9718825B2, “N-(4-(azaindazol-6-yl)-phenyl)-sulfonamides and their use as pharmaceuticals” (priority 2013, dated 2017).

What was measured:
[1] = tested on: SGK-1 dependent phosphorylation of GSK3beta in U2OS cells; assay: SGK-1 dependent phosphorylation of GSK3beta in U2OS cells overexpressing recombinant SGK-1 and GSK3beta; format: cell-based, human; details: U2OS cells, 6 h incubation, ratio of phosphorylated GSK3beta to total GSK3beta; read-out: IC50 values for inhibition of SGK-1 dependent phosphorylation of GSK3beta in U2OS cells
Description: B) Determination of the Effect on SGK-1 Dependent Phosphorylation of GSK3beta in U2OS Cells
U2OS cells were cultured in 1:1 Dulbecco modified Eagle medium/Ham's F12 and 10% heat-inactivated fetal calf serum (FCS Gold) at 37° C., 7% CO2 and 95% relative humidity. […] Cell suspension mixed with BacMam viruses was seeded in 96 well pCLEAR plates (Greiner) at 3×10^4 cells per well in 250 μl medium. […] 1 μl of a solution of the test compound at 250×final concentration was added. Cells are incubated at 37° C., 7% CO2 and 95% relative humidity. […] After removing the fixation solution, cells were permeabilised by adding 200 μl PBT (0.2% Triton X-100 in PBS) per well for 5 min. After removing PBT, cells were blocked by adding 200 μl of blocking solution (1% bovine serum albumine in PBS) per well. Blocking solution was removed and 50 μl of primary antibody (rabbit anti-phospho-GSK-3beta (Ser9), and mouse anti-GSK-3beta) were added for 1 h. […] After washing the cells 3 times with PBS, 200 μl of PBS were added. Fluorescence signals were measured with the ImageXpress MICRO (Molecular Devices).

[2] = target: recombinant human SGK-1 enzyme (Homo sapiens, UniProt O00141); assay: Enzymatic activity assay: SGK-1 substrate peptide phosphorylation (Caliper lab-chip mobility shift); format: biochemical; details: peptide substrate 1 μM, ATP 10 μM, 60 min at 37° C., read-out: IC50 values for inhibition of SGK-1 enzymatic activity
Sequence of recombinant human SGK-1 enzyme (O00141 whole entry, looked up): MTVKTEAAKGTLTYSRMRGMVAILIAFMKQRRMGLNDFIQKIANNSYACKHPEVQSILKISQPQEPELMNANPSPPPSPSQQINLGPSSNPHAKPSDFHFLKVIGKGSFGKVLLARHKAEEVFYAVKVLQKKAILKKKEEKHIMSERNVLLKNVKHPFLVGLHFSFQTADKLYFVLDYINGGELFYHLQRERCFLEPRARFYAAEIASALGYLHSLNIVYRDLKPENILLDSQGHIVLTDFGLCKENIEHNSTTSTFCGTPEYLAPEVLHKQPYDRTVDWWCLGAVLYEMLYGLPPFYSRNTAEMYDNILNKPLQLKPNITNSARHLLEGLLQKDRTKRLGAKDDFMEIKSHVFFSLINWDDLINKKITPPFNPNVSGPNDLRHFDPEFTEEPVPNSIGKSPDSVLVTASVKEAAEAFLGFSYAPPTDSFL
Description: In one of the cellular assays, the SGK-1 dependent phosphorylation of glycogen synthase kinase 3beta (GSK3beta) in U2OS cells was measured, in another one, a functional electrophysiological assay, the SGK-1 dependent activation of epithelial Na^+ channel (ENaC) currents in A6 cell monolayers, and in another one chondrocyte hypertrophic differentiation in mouse chondrogenic ATDC5 cells.
A) Enzymatic Activity Assay
For the determination of the compound dose response, a 10 mM DMSO stock solution was diluted and tested in a ten-point, three-fold dilution series run in duplicate beginning at 30 μM final concentration. Data were analyzed using a four-parameter curve fit with a fixed minimum and maximum experimentally defined as the average positive and negative controls on each plate.

SMILES	IC50 [1] [nM]	IC50 [2] [nM]
O=S(=O)(Nc1ccc(-c2nc(N3CCNCC3)c3cn[nH]c3n2)cc1)c1cc(Cl)ccc1Cl [Example 17]	810	< 1.2
O=S(=O)(Nc1ccc(-c2nc(Oc3cccnc3)c3cn[nH]c3n2)cc1)c1cc(Cl)ccc1F [Example 26]	2600	< 1.2
O=S(=O)(Nc1ccc(-c2nc(Oc3cccnc3)c3cn[nH]c3n2)cc1)c1cc(Cl)ccc1Cl [Example 27]	1900	< 1.2
O=S(=O)(Nc1ccc(-c2nc(OCCCCO)c3cn[nH]c3n2)cc1)c1cc(Cl)ccc1F [Example 35]	5700	3.2
CC(C)(CO)COc1nc(-c2ccc(NS(=O)(=O)c3cc(Cl)ccc3F)cc2)nc2[nH]ncc12 [Example 57]	500	8.3
O=S(=O)(Nc1ccc(-c2nc(OC3CCC(O)C3)c3cn[nH]c3n2)cc1)c1cc(Cl)ccc1Cl (centres unmarked) [Example 60]	480	4
NCCCOc1nc(-c2ccc(NS(=O)(=O)c3cc(Cl)ccc3F)cc2)nc2[nH]ncc12 [Example 62]	450	< 1.2
NCCCOc1nc(-c2ccc(NS(=O)(=O)c3cc(Cl)ccc3Cl)cc2)nc2[nH]ncc12 [Example 63]	280	< 1.2
NCCCOc1nc(-c2ccc(NS(=O)(=O)c3cccc(Cl)c3Cl)cc2)nc2[nH]ncc12 [Example 64]	560	4.2
O=S(=O)(Nc1ccc(-c2nc(N3CCC(O)CC3)c3cn[nH]c3n2)cc1)c1cc(Cl)ccc1Cl [Example 74]	1200	5.5
O=S(=O)(Nc1ccc(-c2nc(OC3CCC(O)C3)c3cn[nH]c3n2)cc1)c1cc(Cl)ccc1F (centres unmarked) [Example 75]	250	4.8
Cc1nc(-c2ccc(NS(=O)(=O)c3cc(Cl)ccc3Cl)cc2)nc2[nH]ncc12 [Example 76]	3000	5.7
O=S(=O)(Nc1ccc(-c2nc(N[C@H]3CC[C@@H](O)CC3)c3cn[nH]c3n2)cc1)c1cc(Cl)ccc1F [Example 77]	3600	3.9
O=S(=O)(Nc1ccc(-c2nc(N[C@H]3CC[C@@H](O)CC3)c3cn[nH]c3n2)cc1)c1cc(Cl)ccc1Cl [Example 78]	2600	3.6
O=S(=O)(Nc1ccc(-c2nc(O[C@H]3CC[C@@H](O)CC3)c3cn[nH]c3n2)cc1)c1cc(Cl)ccc1Cl [Example 80]	450	< 1.5
O=S(=O)(Nc1ccc(-c2nc(O[C@H]3CCCC[C@H]3O)c3cn[nH]c3n2)cc1)c1cc(Cl)ccc1Cl [Example 82]	2100	12
O=S(=O)(Nc1ccc(-c2nc(O[C@H]3CCCC(O)C3)c3cn[nH]c3n2)cc1)c1cc(Cl)ccc1F (some centres unmarked) [Example 84]	1200	3.2
O=S(=O)(Nc1ccc(-c2nc(O[C@H]3CCCC(O)C3)c3cn[nH]c3n2)cc1)c1cc(Cl)ccc1Cl (some centres unmarked) [Example 85]	1500	4.1
CC(C)(O)CCCOc1nc(-c2ccc(NS(=O)(=O)c3cc(Cl)ccc3F)cc2)nc2[nH]ncc12 [Example 86]	1800	11
O=S(=O)(Nc1ccc(-c2nc(O[C@@H]3CCC[C@H]3O)c3cn[nH]c3n2)cc1)c1cc(Cl)ccc1F [Example 87]	4100	6.8
O=S(=O)(Nc1ccc(-c2nc(O[C@@H]3CCC[C@H]3O)c3cn[nH]c3n2)cc1)c1cc(Cl)ccc1Cl [Example 88]	4500	6.7
O=S(=O)(Nc1ccc(-c2nc(SCCCO)c3cn[nH]c3n2)cc1)c1cc(Cl)ccc1Cl [Example 89]	100	< 1.5
COc1ccc(Cl)c(S(=O)(=O)Nc2ccc(-c3nc(OC4CCC(O)CC4)c4cn[nH]c4n3)cc2)c1 (centres unmarked) [Example 90]	200	2.2
COc1ccc(Cl)c(S(=O)(=O)Nc2ccc(-c3nc(O[C@@H]4CCC(O)C4)c4cn[nH]c4n3)cc2)c1 (some centres unmarked) [Example 91]	180	< 1.5
Cc1ccc(F)c(S(=O)(=O)Nc2ccc(-c3nc(OC4CCC(O)CC4)c4cn[nH]c4n3)cc2)c1 (centres unmarked) [Example 92]	180	2.1
Cc1ccc(C#N)c(S(=O)(=O)Nc2ccc(-c3ncc4c(C)n[nH]c4n3)cc2)c1 [Example 93]	3300	2400

SMILES	IC50 [1] [nM]	IC50 [2] [nM]
Cc1ccc(F)c(S(=O)(=O)Nc2ccc(-c3ncc4c(C)n[nH]c4n3)cc2)c1 [Example 95]	4600	< 1.5
Cc1ccc(C#N)c(S(=O)(=O)Nc2ccc(-c3nc(C4CCC(O)C4)c4c(C)n[nH]c4n3)cc2)c1 (centres unmarked) [Example 97]	1600	2
Cc1ccc(C#N)c(S(=O)(=O)Nc2ccc(-c3nc(NC4CCC(O)CC4)c4c(C)n[nH]c4n3)cc2)c1 (centres unmarked) [Example 98]	1700	1.7
Cc1ccc(F)c(S(=O)(=O)Nc2ccc(-c3nc(OC4CCC(O)CC4)c4c(C)n[nH]c4n3)cc2)c1 (centres unmarked) [Example 101]	430	2.1
COc1ccc(Cl)c(S(=O)(=O)Nc2ccc(-c3nc(OC4CCC(O)CC4)c4c(C)n[nH]c4n3)cc2)c1 (centres unmarked) [Example 102]	380	1.7
Cc1n[nH]c2nc(-c3ccc(NS(=O)(=O)c4cc5c(cc4Cl)OCCO5)cc3)ncc12 [Example 103]	9100	2.3
Cc1ccc(F)c(S(=O)(=O)Nc2ccc(-c3nc(OCC4CNC(=O)C4)c4cn[nH]c4n3)cc2)c1 (centres unmarked) [Example 107]	3700	2.5
Cc1ccc(F)c(S(=O)(=O)Nc2ccc(-c3nc(N4CC(CO)C4)c4cn[nH]c4n3)cc2)c1 [Example 109]	4600	16
COc1ccc(Cl)c(S(=O)(=O)Nc2ccc(-c3nc(N4CC(CO)C4)c4cn[nH]c4n3)cc2)c1 [Example 110]	5100	14
Cc1ccc(F)c(S(=O)(=O)Nc2ccc(-c3nc(OCCCC(N)=O)c4cn[nH]c4n3)cc2)c1 [Example 112]	3900	3.3
COc1ccc(Cl)c(S(=O)(=O)Nc2ccc(-c3nc(OCCCC(N)=O)c4cn[nH]c4n3)cc2)c1 [Example 113]	3600	3
Cc1ccc(F)c(S(=O)(=O)Nc2ccc(-c3nc(OCCC(N)=O)c4cn[nH]c4n3)cc2)c1 [Example 116]	4800	< 1.5
COc1ccc(Cl)c(S(=O)(=O)Nc2ccc(-c3nc(OCCC(N)=O)c4cn[nH]c4n3)cc2)c1 [Example 117]	6800	2.3
Cc1ccc(F)c(S(=O)(=O)Nc2ccc(-c3nc(OC4C[C@@H](O)C[C@@H](O)C4)c4cn[nH]c4n3)cc2)c1 (some centres unmarked) [Example 119]	11000	< 1.5
Cc1ccc(F)c(S(=O)(=O)Nc2ccc(-c3nc(OCC4O[C@H](O)[C@H](O)[C@@H](O)[C@@H]4O)c4cn[nH]c4n3)cc2)c1 (some centres unmarked) [Example 123]	30000	9.9
Cc1ccc(C#N)c(S(=O)(=O)Nc2ccc(-c3nc(OCC4CNC(=O)C4)c4cn[nH]c4n3)cc2)c1 (centres unmarked) [Example 125]	12000	2
Cc1n[nH]c2nc(-c3ccc(NS(=O)(=O)c4cc(C#N)ccc4F)cc3)nc(OC3CCC(O)CC3)c12 (centres unmarked) [Example 128]	3600	2.7
COc1ccc(F)c(S(=O)(=O)Nc2ccc(-c3nc(OC4CCC(O)CC4)c4c(C)n[nH]c4n3)cc2)c1 (centres unmarked) [Example 129]	170	< 1.5
Cc1n[nH]c2nc(-c3ccc(NS(=O)(=O)c4cc(F)ccc4C#N)cc3)nc(OC3CCC(O)CC3)c12 (centres unmarked) [Example 131]	2600	4.9
COc1ccc(F)c(S(=O)(=O)Nc2ccc(-c3nc(OC4CCC(O)CC4)c4cn[nH]c4n3)cc2)c1 (centres unmarked) [Example 133]	260	< 1.5
COc1ccc(C#N)c(S(=O)(=O)Nc2ccc(-c3nc(OC4CCC(O)CC4)c4cn[nH]c4n3)cc2)c1 (centres unmarked) [Example 134]	640	< 1.5
COc1nc(-c2ccc(NS(=O)(=O)c3cc(C)ccc3C#N)cc2)nc2[nH]ncc12 [Example 135]	1900	12
COc1nc(-c2ccc(NS(=O)(=O)c3cc(Cl)ccc3F)cc2)nc2[nH]ncc12 [Example 136]	1700	41
COc1nc(-c2ccc(NS(=O)(=O)c3cc(Cl)ccc3C#N)cc2)nc2[nH]ncc12 [Example 138]	3500	44
COc1nc(-c2ccc(NS(=O)(=O)c3cc(Cl)ccc3Cl)cc2)nc2[nH]ncc12 [Example 139]	5500	82
O=S(=O)(Nc1ccc(-c2nc(C3CC3)c3cn[nH]c3n2)cc1)c1cc(Cl)ccc1F [Example 141]	150	6.5
